# In patent US11925702B2, “Methods for extracting compound from ginseng, ginseng extract comprising the compound and composition for enhancing skin barrier comprising the same” (AMOREPACIFIC CORPORATION, priority 2022, dated 2024):
# Columns and labels:
# Type in all cases: cell-based, human
# Filaggrin (FLG) gene = Filaggrin (FLG) gene expression in NHEK by Taqman real-time PCR; settings: isolated compound added to NHEK culture media, concentration series (FIG. 5)
# Procedure: (§1) (1) Normal human epidermal keratinocytes (NHEK) were cultured in 6-well culture media. The anaerobic-naturally fermented ginseng extract of the preparation example and an unfermented fresh ginseng extract were respectively added to the NHEK media and cultured. After harvesting the cells on the 4th day, separating RNA therefrom, and synthesizing cDNA through RT-PCR (reverse transcriptional polymerase chain reaction), the synthesized cDNA was measured with respect to an expression level of the Filaggrin gene through Taqman real-time PCR, and the results are shown in FIG. 4.
# (§2) (2) The compound represented by Chemical Formula 1-1, which was separated from the anaerobic-naturally fermented ginseng extract of the preparation example, was added to an NHEK culture media and treated in the same manner as in (1), and then measured with respect to each gene expression level of Filaggrin, Occludin, and ATP-binding cassette sub-family A member 12 (ATP-binding cassette transporter 12), and the results are shown in FIGS. 5 to 7.
# Occludin (OCLN) gene = Occludin (OCLN) gene expression in NHEK by Taqman real-time PCR; settings: isolated compound added to NHEK culture media, concentration series (FIG. 6)
# Procedure: as §1, §2
# [1] = test system: ATP-binding cassette sub-family A member 12 (ABCA12) gene; assay: ABCA12 gene expression in NHEK by Taqman real-time PCR; settings: isolated compound added to NHEK culture media, concentration series (FIG. 7)
# Procedure: as §1, §2
structure (smiles),measurement,setting,value
CC(C)=CCC[C@](C)(O[C@@H]1O[C@H](CO[C@@H]2O[C@H](CO)[C@@H](O)[C@H](O)[C@H]2O)[C@@H](O)[C@H](O)[C@H]1O)[C@H]1CC[C@]2(C)[C@@H]1[C@H](O)C[C@@H]1[C@@]3(C)CC[C@H](O[C@@H]4O[C@H](CO)[C@@H](O)[C@H](O)[C@H]4O)C(C)(C)[C@@H]3CC[C@]12C [Chemical Formula 1-1],gene expression level of Filaggrin (FLG),Filaggrin (FLG) gene,"increased, as a concentration thereof was increased"
same,gene expression level of Occludin (OCLN),Occludin (OCLN) gene,"increased, as a concentration thereof was increased"
same,gene expression level of ATP-binding cassette sub-family A member 12 (ABCA12),[1],"increased, as a concentration thereof was increased"
